Data on one compound can be found in patent US8530487B1 (priority 2009, dated 2013).

The structures appear in SMILES notation. Bounds are passed on as bounds.

In this experiment the target is human TRPA1 (Homo sapiens, UniProt O75762). As to the kind of experiment: cell-based. The settings on record: read-out: Activity (IC50).
human TRPA1, sequence (O75762 whole entry): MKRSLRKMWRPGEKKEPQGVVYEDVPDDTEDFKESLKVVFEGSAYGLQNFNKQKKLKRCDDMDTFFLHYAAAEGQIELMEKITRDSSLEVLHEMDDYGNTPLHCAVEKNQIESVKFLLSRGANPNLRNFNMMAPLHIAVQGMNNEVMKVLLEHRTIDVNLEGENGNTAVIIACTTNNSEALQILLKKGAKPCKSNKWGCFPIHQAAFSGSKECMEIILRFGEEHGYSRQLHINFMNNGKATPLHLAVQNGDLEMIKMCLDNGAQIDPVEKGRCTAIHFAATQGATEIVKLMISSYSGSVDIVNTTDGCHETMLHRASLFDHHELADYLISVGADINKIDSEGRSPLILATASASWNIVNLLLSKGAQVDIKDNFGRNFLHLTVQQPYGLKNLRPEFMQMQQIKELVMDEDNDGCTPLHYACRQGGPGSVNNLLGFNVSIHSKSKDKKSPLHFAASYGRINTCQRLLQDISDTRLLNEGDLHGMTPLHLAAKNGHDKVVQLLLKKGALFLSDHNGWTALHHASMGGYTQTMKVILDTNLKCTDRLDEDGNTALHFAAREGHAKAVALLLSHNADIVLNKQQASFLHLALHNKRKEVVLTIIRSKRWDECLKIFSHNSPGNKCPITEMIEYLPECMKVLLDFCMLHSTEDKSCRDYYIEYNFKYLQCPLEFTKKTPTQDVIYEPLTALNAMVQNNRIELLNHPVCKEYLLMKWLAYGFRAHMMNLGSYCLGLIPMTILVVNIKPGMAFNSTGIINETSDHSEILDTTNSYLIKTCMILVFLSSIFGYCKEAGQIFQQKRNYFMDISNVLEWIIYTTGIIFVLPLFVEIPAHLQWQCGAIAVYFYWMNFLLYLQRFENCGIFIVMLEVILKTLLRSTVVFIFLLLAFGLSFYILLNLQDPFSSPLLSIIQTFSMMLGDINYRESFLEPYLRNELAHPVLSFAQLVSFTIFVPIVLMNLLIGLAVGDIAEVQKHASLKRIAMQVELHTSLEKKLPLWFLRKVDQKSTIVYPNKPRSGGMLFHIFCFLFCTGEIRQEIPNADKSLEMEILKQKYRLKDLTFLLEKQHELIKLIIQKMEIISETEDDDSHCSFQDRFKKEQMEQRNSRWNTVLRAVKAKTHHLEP

Regarding `COc1cccc(C2NC(=O)NC3=C2C(=O)c2ccccc23)c1Cl` (stereo not shown) [Compound 428], the IC50 is over 1000 nM.

In general, IC50 refers to the concentration at which inhibition is half-maximal.
